The target in assay [1] is T1, Tyrosine-protein phosphatase non-receptor type 1 (Homo sapiens, UniProt P18031).
T1 sequence (P18031 whole entry): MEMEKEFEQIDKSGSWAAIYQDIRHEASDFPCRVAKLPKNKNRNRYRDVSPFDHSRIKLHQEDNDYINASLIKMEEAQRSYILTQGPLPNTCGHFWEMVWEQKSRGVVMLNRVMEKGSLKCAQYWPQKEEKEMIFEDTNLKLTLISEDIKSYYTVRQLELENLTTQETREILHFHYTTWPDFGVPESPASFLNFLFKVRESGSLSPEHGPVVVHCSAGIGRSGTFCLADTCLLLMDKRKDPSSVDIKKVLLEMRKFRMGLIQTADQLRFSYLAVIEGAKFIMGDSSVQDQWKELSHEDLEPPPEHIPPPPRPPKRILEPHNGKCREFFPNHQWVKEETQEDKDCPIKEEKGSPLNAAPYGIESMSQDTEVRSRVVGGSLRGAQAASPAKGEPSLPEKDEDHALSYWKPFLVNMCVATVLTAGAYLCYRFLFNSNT
Kind of assay: Inhibition of recombinant human PTP1B catalytic domain expressed in Escherichia coli BL21-CodonPlus (DE3) using pNPP as substrate measured for 2 mins.

The target in assay [2] is T2, Tyrosine-protein phosphatase non-receptor type 2 (Homo sapiens) (UniProt P17706).
T2 sequence (whole entry): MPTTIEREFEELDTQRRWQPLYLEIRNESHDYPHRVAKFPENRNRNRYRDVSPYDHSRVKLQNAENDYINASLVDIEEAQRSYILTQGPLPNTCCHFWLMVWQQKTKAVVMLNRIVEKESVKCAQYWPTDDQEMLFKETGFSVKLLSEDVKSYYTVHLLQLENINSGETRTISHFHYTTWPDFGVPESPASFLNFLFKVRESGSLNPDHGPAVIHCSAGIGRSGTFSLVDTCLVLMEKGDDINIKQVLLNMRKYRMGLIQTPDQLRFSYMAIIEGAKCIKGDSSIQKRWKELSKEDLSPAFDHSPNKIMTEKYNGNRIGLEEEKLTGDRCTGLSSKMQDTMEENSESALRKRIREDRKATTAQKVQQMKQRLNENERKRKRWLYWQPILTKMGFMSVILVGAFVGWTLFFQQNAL
Kind of assay: Inhibition of GST-tagged human […] expressed in Escherichia coli at 20 ug/ml using pNPP as substrate relative to control.

The target in assay [3] is Receptor-type tyrosine-protein phosphatase F (Homo sapiens) (UniProt P10586). Kind of assay: Inhibition of GST-tagged human LAR expressed in Escherichia coli at 20 ug/ml using pNPP as substrate relative to control.
Assay [4] addresses T3, Tyrosine-protein phosphatase non-receptor type 6 (Homo sapiens, UniProt P29350). Kind of assay: Inhibition of GST-tagged human SHP1 expressed in Escherichia coli at 20 ug/ml using pNPP as substrate relative to control.
For assay [5], the target named is T3, Tyrosine-protein phosphatase non-receptor type 6. Kind of assay: Inhibition of GST-tagged human SHP1 expressed in Escherichia coli using pNPP as substrate.
Assay [6] concerns the target T4, Tyrosine-protein phosphatase non-receptor type 2 (Homo sapiens, UniProt P17706).
T4 sequence (P17706 whole entry): T2 sequence (whole entry)
Kind of assay: Inhibition of GST-tagged human […] expressed in Escherichia coli using pNPP as substrate.

Molecules are shown by their SMILES.

Chain of Receptor-type tyrosine-protein phosphatase F (Homo sapiens) (P10586 whole entry): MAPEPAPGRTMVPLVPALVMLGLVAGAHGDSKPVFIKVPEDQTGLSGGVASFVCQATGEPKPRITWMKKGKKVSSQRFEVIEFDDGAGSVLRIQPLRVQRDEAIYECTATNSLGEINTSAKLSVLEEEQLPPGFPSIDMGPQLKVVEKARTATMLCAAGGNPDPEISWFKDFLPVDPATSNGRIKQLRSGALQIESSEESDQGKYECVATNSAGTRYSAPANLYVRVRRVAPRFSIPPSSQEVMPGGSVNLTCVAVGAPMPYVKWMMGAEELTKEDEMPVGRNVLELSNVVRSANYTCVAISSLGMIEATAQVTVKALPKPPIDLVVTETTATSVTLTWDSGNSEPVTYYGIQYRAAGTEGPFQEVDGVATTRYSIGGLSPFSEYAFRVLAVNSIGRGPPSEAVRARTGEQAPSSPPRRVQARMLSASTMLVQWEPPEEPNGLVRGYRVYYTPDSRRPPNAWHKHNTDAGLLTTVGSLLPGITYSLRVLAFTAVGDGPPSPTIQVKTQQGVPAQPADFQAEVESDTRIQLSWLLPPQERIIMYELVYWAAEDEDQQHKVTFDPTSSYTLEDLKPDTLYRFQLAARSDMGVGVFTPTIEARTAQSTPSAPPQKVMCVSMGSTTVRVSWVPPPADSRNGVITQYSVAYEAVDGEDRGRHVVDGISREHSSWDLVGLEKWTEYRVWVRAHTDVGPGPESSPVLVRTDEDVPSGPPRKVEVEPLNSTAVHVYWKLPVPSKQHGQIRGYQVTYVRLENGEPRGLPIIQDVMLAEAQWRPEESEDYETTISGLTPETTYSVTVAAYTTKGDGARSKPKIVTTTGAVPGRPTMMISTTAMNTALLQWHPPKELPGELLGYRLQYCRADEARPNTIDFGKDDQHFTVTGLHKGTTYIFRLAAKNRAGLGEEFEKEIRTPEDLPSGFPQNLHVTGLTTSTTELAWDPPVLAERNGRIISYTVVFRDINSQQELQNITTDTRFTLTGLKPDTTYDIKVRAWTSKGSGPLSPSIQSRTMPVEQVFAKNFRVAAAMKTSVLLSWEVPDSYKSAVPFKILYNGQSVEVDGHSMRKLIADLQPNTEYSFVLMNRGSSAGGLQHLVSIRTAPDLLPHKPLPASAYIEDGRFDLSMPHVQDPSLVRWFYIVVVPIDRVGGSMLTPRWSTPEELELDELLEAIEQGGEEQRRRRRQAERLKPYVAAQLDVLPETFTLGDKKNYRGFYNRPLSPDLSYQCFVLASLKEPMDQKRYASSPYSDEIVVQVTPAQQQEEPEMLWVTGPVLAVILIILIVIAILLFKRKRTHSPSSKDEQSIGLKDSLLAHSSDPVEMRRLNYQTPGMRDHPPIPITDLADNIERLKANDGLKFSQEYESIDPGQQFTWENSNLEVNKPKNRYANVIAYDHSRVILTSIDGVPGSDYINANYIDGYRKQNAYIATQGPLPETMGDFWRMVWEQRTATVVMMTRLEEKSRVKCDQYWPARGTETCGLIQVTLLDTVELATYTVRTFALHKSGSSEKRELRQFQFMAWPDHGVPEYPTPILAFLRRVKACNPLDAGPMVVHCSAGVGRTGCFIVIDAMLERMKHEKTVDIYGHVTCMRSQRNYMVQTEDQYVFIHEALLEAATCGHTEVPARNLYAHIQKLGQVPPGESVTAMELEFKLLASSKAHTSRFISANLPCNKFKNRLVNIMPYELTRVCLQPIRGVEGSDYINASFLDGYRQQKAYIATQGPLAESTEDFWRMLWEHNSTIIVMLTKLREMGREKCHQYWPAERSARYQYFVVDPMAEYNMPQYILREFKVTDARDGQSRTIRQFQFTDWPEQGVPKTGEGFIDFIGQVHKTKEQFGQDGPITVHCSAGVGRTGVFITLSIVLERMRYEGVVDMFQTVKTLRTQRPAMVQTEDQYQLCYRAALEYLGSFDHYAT
T3 sequence (P29350 whole entry): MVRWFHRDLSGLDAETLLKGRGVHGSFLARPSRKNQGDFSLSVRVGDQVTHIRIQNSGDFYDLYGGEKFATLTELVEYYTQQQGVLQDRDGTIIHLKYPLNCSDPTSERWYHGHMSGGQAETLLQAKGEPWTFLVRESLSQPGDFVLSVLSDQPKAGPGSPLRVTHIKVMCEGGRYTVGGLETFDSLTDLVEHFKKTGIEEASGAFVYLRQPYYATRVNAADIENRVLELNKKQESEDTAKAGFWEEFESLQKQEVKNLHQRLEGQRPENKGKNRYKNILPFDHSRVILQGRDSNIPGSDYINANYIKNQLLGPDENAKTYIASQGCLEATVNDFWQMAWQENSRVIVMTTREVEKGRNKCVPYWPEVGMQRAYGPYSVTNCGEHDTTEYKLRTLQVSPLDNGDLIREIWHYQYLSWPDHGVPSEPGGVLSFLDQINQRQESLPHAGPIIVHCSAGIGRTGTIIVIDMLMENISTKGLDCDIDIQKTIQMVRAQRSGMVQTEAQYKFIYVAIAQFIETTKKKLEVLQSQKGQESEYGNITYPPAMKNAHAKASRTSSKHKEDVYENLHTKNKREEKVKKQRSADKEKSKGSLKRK

In general, IC50 refers to the concentration that inhibits the measured activity by half. Take `COc1ccc2c(c1)[C@@H]1O[C@@]3(C(=O)N(Cc4ccccc4)c4ccccc43)[C@@H](c3ccc(C)cc3)[C@@]13NC(=O)C[C@H]3O2`: the IC50 in assay [1] was 7.98 µM.
Consider `COc1cccc2c1O[C@@H]1CC(=O)N[C@]13[C@H]2O[C@@]1(C(=O)N(Cc2ccccc2)c2ccccc21)[C@H]3c1ccc(Br)cc1`, for which the IC50 in assay [1] was 6.19 µM.
`COc1ccccc1[C@H]1[C@]23NC(=O)C[C@H]2Oc2c(OC)cccc2[C@@H]3O[C@@]12C(=O)N(Cc1ccccc1)c1ccccc12`: in assay [1], the IC50 is 10 µM.
Take `COC(=O)/C=C/Oc1ccc(OC)cc1[C@@H]1O[C@@]2(C(=O)N(Cc3ccccc3)c3ccccc32)[C@@H](c2ccc(Br)cc2)[C@@H]1[N+](=O)[O-]`: the IC50 in assay [1] came to 5.34 µM.
Turning to `COC(=O)/C=C/Oc1c(OC)cccc1[C@@H]1O[C@@]2(C(=O)N(Cc3ccccc3)c3ccccc32)[C@@H](c2ccc(C)cc2)[C@@H]1[N+](=O)[O-]`, the IC50 in assay [1] is 6.8 µM.
Same read-out and setting: with `COC(=O)/C=C/Oc1ccc(OC)cc1[C@@H]1O[C@@]2(C(=O)N(Cc3ccccc3)c3ccccc32)[C@@H](c2ccc(C)cc2)[C@@H]1[N+](=O)[O-]` the figure was 13.2 µM.
Still for that read-out and setting: to `COC(=O)C[C@H]1Oc2ccc(Cl)cc2[C@@H]2O[C@@]3(C(=O)N(Cc4ccccc4)c4ccccc43)[C@@H](c3ccc(Br)cc3)[C@]12[N+](=O)[O-]` belongs 4.65 µM; to `COc1cccc2c1O[C@@H]1CC(=O)N[C@]13[C@H]2O[C@@]1(C(=O)N(Cc2ccccc2)c2ccccc21)[C@H]3c1ccc(C)cc1`, 7.07 µM.
Usually inhibition stands for the relative decrease from the control value, in per cent. For the compound `COC(=O)/C=C/Oc1c(OC)cccc1[C@@H]1O[C@@]2(C(=O)N(Cc3ccccc3)c3ccccc32)[C@@H](c2ccc(Br)cc2)[C@@H]1[N+](=O)[O-]`, the inhibition was found to be 38.3% in assay [2], 18.7% in assay [3] and 98.8% in assay [4]. Also, the results for the IC50 in assay [5] and in assay [1] were 5.29 µM and 3.89 µM, respectively.
For `COC(=O)C[C@H]1Oc2c(OC)cccc2[C@@H]2O[C@@]3(C(=O)N(Cc4ccccc4)c4ccccc43)[C@@H](c3ccc(C)cc3)[C@]12[N+](=O)[O-]`, in assay [1], the IC50 was found to be 8.2 µM.
Take `COc1ccc2c(c1)[C@@H]1O[C@@]3(C(=O)N(Cc4ccccc4)c4ccccc43)[C@@H](c3ccc(Br)cc3)[C@@]13NC(=O)C[C@H]3O2`: the IC50 in assay [1] is 6.48 µM.
Take `COC(=O)C[C@H]1Oc2c(OC)cccc2[C@@H]2O[C@@]3(C(=O)N(Cc4ccccc4)c4ccccc43)[C@@H](c3ccc(Br)cc3)[C@]12[N+](=O)[O-]`: the IC50 in assay [1] was 5.43 µM.
As for `COC(=O)C[C@H]1Oc2ccc(OC)cc2[C@@H]2O[C@@]3(C(=O)N(Cc4ccccc4)c4ccccc43)[C@@H](c3ccc(Br)cc3)[C@]12[N+](=O)[O-]`, the IC50 in assay [1] came out at 6.67 µM.
`Cc1ccc2c(c1)[C@@H]1O[C@@]3(C(=O)N(Cc4ccccc4)c4ccccc43)[C@@H](c3ccccc3)[C@@]13NC(=O)C[C@H]3O2`: the IC50 in assay [1] amounted to 10.3 µM.
On the same count and under the same terms, with `O=C1C[C@H]2Oc3ccc(Cl)cc3[C@@H]3O[C@@]4(C(=O)N(Cc5ccccc5)c5ccccc54)[C@@H](c4ccc(Br)cc4)[C@]23N1` the figure was 6.04 µM; with `Cc1ccc([C@H]2[C@]34NC(=O)C[C@H]3Oc3ccc(Cl)cc3[C@@H]4O[C@@]23C(=O)N(Cc2ccccc2)c2ccccc23)cc1`, 5.61 µM.
For the compound `COC(=O)C[C@H]1Oc2ccc(OC)cc2[C@@H]2O[C@@]3(C(=O)N(Cc4ccccc4)c4ccccc43)[C@@H](c3ccc(C)cc3)[C@]12[N+](=O)[O-]`, the values for the inhibition in assay [2], in assay [3] and in assay [4] were 10.3%, 15.5% and 31.1%, respectively. Moreover, in assay [1], the IC50 stood at 4.53 µM.
As to `Cc1ccc([C@H]2[C@]34NC(=O)C[C@H]3Oc3ccc(C)cc3[C@@H]4O[C@@]23C(=O)N(Cc2ccccc2)c2ccccc23)cc1`, the inhibition was 19.4% in assay [2], 6.72% in assay [3] and 96.1% in assay [4]. Also, the IC50 in assay [6] came to 35.8 µM; in assay [5], 10.6 µM; in assay [1], 4.72 µM.
Turning to `COC(=O)C[C@H]1Oc2c(OC)cccc2[C@@H]2O[C@@]3(C(=O)N(Cc4ccccc4)c4ccccc43)[C@@H](c3ccccc3OC)[C@]12[N+](=O)[O-]`, the concentration for half-maximal inhibition (IC50) in assay [1] was found to be 5.83 µM.

The record behind these values is ChEMBL document CHEMBL4000238, “Discovery of core-structurally novel PTP1B inhibitors with specific selectivity containing oxindole-fused spirotetrahydrofurochroman by one-pot reaction” (Bioorg Med Chem Lett, 2017).
